This is an account of results in patent US6927236B2, “Coniosulfides and their derivatives, processes for preparing them, and their use as pharmaceuticals” (Aventis Pharma Deutschland GmbH., priority 2001, dated 2005).

A short description of data set [1]: Solubility (appearance / physicochemical properties). The following applies: for Solubility in organic solvents: medium-polar and polar organic solvents.
Data set [2] is described as follows: Stability in solution (appearance / physicochemical properties).
Data set [3] addresses T1, amyloid precursor protein - FE65 interaction (Homo sapiens, UniProt O00213).
T1 construct: 1 μL of GST-PTB2 (20 nM in Buffer A) was added
T1 sequence (O00213 542-699 limits assumed): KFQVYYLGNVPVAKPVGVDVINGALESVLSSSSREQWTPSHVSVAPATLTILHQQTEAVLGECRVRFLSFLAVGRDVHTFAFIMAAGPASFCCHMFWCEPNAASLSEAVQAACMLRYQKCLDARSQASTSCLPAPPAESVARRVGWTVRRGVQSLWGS
The data set is described as follows: Test for the ability to inhibit the APP-FE65 interaction (energy transfer, Eu-cryptate/XL665). The class given is binding. Particulars: for IC50: biotin-cAPP / GST-PTB2, emission at 665 nm and 615 nm, read-out: Inhibition of the amyloid precursor protein - FE65 interaction, IC50. As to the method:
Test for the Ability to Inhibit the APP-FE65 Interaction
1 μl of the solution to be tested was pipetted, together with 30 μM 32 mer cAPP in Buffer A, into a microtiter plate. 1 μl of biotin-cAPP (10 nM, dissolved in Buffer A) was then added. After incubating for 15 minutes, 1 μL of GST-PTB2 (20 nM in Buffer A) was added and the plate was incubated once again for 15 minutes. 4 μl of antibody mixture (Streptavidin labeled with Eu-cryptate, […] per well; monoclonal anti-GST antibody labeled with XL665, […] in Buffer B) were then added. After 30 minutes at room temperature, the emission signal of the energy transfer, and the europium signal, were measured at 665 nm and 615 nm in a Tecan ultraphotometer after the test solution had been activated with light at a wavelength of 340 nm.
The IC50 values listed in Table 1 were found for the inhibition of the amyloid precursor protein—FE65 interaction.

As for `CC(=O)NCC(=O)N/C(=C\SC/C=C(\C)CC/C=C(\C)CCC(C)=C(C)C)C(=O)O` [Coniosulfide B], in data set [1], the “Solubility in organic solvents” value is “soluble” and the Solubility in water result is recorded as “not particularly soluble”. Moreover, in data set [2], the “Stability in neutral and mildly acidic medium” value is “Stable”; the “Stability in strongly acid and strongly alkaline solutions” value was “unstable”. Besides, in data set [3], the IC50 (usually the concentration that gives 50% inhibition) came to 2.6 µM.

As to `CC(=O)NCC(=O)N/C(=C\SC/C=C(\C)CC/C=C(\C)CCC=C(C)C)C(=O)O` [Coniosulfide A], in data set [1], the “Solubility in organic solvents” value is recorded as “soluble” and the Solubility in water result was “not particularly soluble”. For the same molecule, in data set [2], the “Stability in neutral and mildly acidic medium” value is “Stable”; the “Stability in strongly acid and strongly alkaline solutions” value is listed as “unstable”. In addition, the IC50 in data set [3] was found to be 2.3 µM.

Turning to `CC(=O)NCC(=O)NCC(=O)N/C(=C\SC/C=C(\C)CC/C=C(\C)CCC=C(C)C)C(=O)O` [Coniosulfide C], in data set [1], the “Solubility in organic solvents” value is “soluble” and the Solubility in water entry is “not particularly soluble”. Further, in data set [2], the “Stability in neutral and mildly acidic medium” value is listed as “Stable”; the “Stability in strongly acid and strongly alkaline solutions” value is “unstable”. Further, the IC50 in data set [3] stood at 3.8 µM.

Turning to `C/C=C/C=C/C1C(C)=CC2CC(C)CCC2C1(C)/C(O)=C1\C(=O)NC(C(C)O)C1=O` (centres unmarked) [Coniosetin, coniosetin], in data set [1], the “Solubility in organic solvents” value is on record as “soluble” and the Solubility in water result is “not particularly soluble”. Besides, in data set [2], the “Stability in neutral and mildly acidic medium” value is reported as “Stable”; the “Stability in strongly acid and strongly alkaline solutions” value was “unstable”. For the same molecule, in data set [3], the “Inhibition of the APP-FE65 interaction (in words)” value is recorded as “inhibits the APP-FE65 reaction” and the IC50 amounted to 28 µM.

Regarding `CC(=O)NCC(=O)NCC(=O)N/C(=C\SC/C=C(\C)CC/C=C(\C)CCC(C)=C(C)C)C(=O)O` [Coniosulfide D], in data set [1], the “Solubility in organic solvents” value is given as “soluble” and the Solubility in water entry is “not particularly soluble”. For the same molecule, in data set [2], the “Stability in neutral and mildly acidic medium” value is recorded as “Stable”; the “Stability in strongly acid and strongly alkaline solutions” value is “unstable”. Also, the IC50 in data set [3] was determined as 3.8 µM.
